Results published in PubChem BioAssay AID1845202 (Molecular Pharmacology Branch, DTP, NCI, 2023).
Where “and” joins values, the source holds several entries; their conditions need not be identical. Equal entries are not always repeated.

Test system: DMS 114 tumor spheroids, viability % test/control
Experiment: Anticancer human tumor DMS 114 cell line growth inhibition;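 also: spheroids exposed to compounds for 7 days before read-out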;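 as to viability, T/C: luminescence used as a proxy for viable cells; 100% = DMSO vehicle control viability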
Conditions: spheroids with HUVEC and MSC; for viability, T/C: stronger effect = lower value
Excerpt: Multicellular complex tumor spheroid response to DNA repair inhibitors in combination with DNA-damaging drugs
This study explores the anticancer activities of DNA-damaging drugs and inhibitors of DNA damage repair, both as single agents and in combinations. Complex tumor spheroids comprised of malignant cells, endothelial cells and mesenchymal stem cells served as an in vitro model for human solid tumors. This model system incorporates physiologically relevant features and patient-derived or established malignant cell lines with clinically relevant genetic alterations from many tumor types. Twenty-six patient-derived or established malignant cell lines were evaluated representing sarcoma, melanoma, small cell lung cancer (SCLC), non-small cell lung cancer (NSCLC), as well as bladder, ovarian and pancreatic cancers. The concentration ranges selected for each drug and investigational agent were based upon clinically achievable concentrations if the clinical Cmax of the agent was known.
Compounds. The drugs and compounds olaparib (NSC753686), talazoparib (NSC767125), berzosertib (NSC777718), elimusertib (NSC800525), nedisertib (NSC802822), VX-984 (NSC792969), AZD-1390 (NSC803789), temozolomide (NSC362856), topotecan (NSC609699), trabectedin (NSC813783), staurosporine (NSC755774), and gemcitabine (NSC613327) were obtained from the National Cancer Institute (NCI) Developmental Therapeutics Program Chemical Repository. The FDA-approved anticancer drug set is available from the Developmental Therapeutics Program at https://dtp.cancer.gov/organization/dscb/obtaining/available_plates.htm. […] The stock solutions were prepared in dimethyl sulfoxide (DMSO, Sigma-Aldrich, St. Louis, MO, cat. D2650) at 400-fold the tested concentration and stored at -70 degrees C. Prior to their use, the stock solutions were diluted in fresh medium and the final DMSO concentration in the assay was 0.25% (v/v). All drugs and investigational agents were tested over a range starting from a high concentration at or near the clinical Cmax and decreasing in half-log increments. If the clinical Cmax for an agent had not been determined, the highest concentration tested was 10 microM.
Cell Lines. The patient-derived cancer cell (PDC) lines: 156681-154-R-J1-PDC, 283228-195-R-J1-PDC, 287954-098-R-J1-PDC, 292921-168-R-J2-PDC, 349418-098-R-PDC, 425362-245-T-J1-PDC, 556581-035-R-J1-PDC, and BL0293-F563-PDC were received from the NCI Patient-Derived Models Repository (PDMR, https://pdmr.cancer.gov). The established cell lines HS-SY-2 (RRID:CVCL_8719), MPNST, and SYO-1 (RRID:CVCL_7146) were obtained from the Sloan Kettering Institute. The alveolar soft parts sarcoma cell line ASPS-1 (RRID:CVCL_S738) was established at the NCI and grown from internal seed stocks. The following established cell lines were purchased from the American Type Culture Collection (ATCC, Manassas, VA): G-401 (ATCC, cat. CRL-1441, RRID:CVCL_0270), SW982 (ATCC, cat. HTB-93, RRID:CVCL_1734), VA-ES-BJ (ATCC, cat. CRL-2138, RRID:CVCL_1785), NCI-H719 (ATCC, cat. CRL-5837, RRID:CVCL_1582), NCI-H196 (ATCC, cat. CRL-5823, RRID:CVCL_1509), NCI-H841 (ATCC, cat. CRL-5845, RRID:CVCL_1595), NCI-H1618 (ATCC, cat. CRL-5879, RRID:CVCL_1480), NCI-H1876 (ATCC, cat. CRL-5902, RRID:CVCL_1503), DMS 114 (ATCC, cat. CRL-2066; RRID:CVCL_1174), NCI-H211 (ATCC, cat. CRL-5824; RRID:CVCL_1529), and SW 1271 (ATCC, cat. CRL-2177, RRID:CVCL_1716). The small cell lung cancer cell line COR-L88 was purchased from Sigma-Aldrich (cat. 92031917-1VL, RRID:CVCL_1141). The non-small cell lung cancer cell lines NCI-H226 (RRID:CVCL_1544) and NCI-H322M (RRID:CVCL_1557) were established at the NCI and grown from internal seed stocks. Pooled donor human umbilical vein endothelial cells (HUVEC, Lonza, cat. CC-2519) and human mesenchymal stem cells (hMSC, Lonza, cat. PT-2501) were purchased from Lonza (Walkersville, MD).
Cell Culture. All cells were maintained in an incubator at 37 degrees C and 5% CO2 with 95% humidity. […]

[1] = compound alone, run of 10/17/2019
[2] = compound alone, run of 10/25/2019

| Structure (SMILES) | viability, T/C (compound 0.0316 µM) | viability, T/C (compound 0.1 µM) | viability, T/C (compound 0.316 µM) | viability, T/C (compound 1 µM) | viability, T/C (compound 3.16 µM) | viability, T/C (compound 10 µM) | IC50 (curve of compound) | viability, T/C (compound 0.03 µM) | viability, T/C (compound 0.0949 µM) | viability, T/C (compound 0.3 µM) | viability, T/C (compound 0.949 µM) | viability, T/C (compound 3 µM) | further results |
| --- | --- | --- | --- | --- | --- | --- | --- | --- | --- | --- | --- | --- | --- |
| CC(C)n1c(=O)n(C)c2cnc3cc(F)c(-c4ccc(OCCCN5CCCCC5)nc4)cc3c21 | 106% and 99.8% and 105% | 104% and 103% and 107% | 101% and 97.2% and 106% | 97.8% and 102% and 93.4% | 70.1% and 88% and 73.8% | 22.5% and 34.4% and 22.6% | 5.15 µM and 7.21 µM and 5.37 µM |  |  |  |  |  |  |
| CC1COCCN1c1cc(-c2ccnn2C)c2ccnc(-c3ccn[nH]3)c2n1 (configuration not stated) | 53.3% and 52% and 78.1% | 33.3% and 43.1% and 47.9% | 19% and 25.5% and 22.5% | 12% and 12.8% and 12.6% | 9.85% and 10.8% and 9.54% | 10.2% and 11.9% and 8.81% | 0.0382 µM and 0.0407 µM and 0.0922 µM |  |  |  |  |  |  |
| CC[C@@]1(O)C(=O)OCc2c1cc1n(c2=O)Cc2cc3c(CN(C)C)c(O)ccc3nc2-1 |  |  |  |  |  |  |  | 33.1% [middle of 10 runs] | 16.2% [middle of 10 runs] | 10.4% [middle of 10 runs] |  |  | viability, T/C (compound 0.003 µM): 107% [middle of 10 runs]; IC50 [1]: 22.3 nM [middle of 5 runs]; IC50 [2]: 20.2 nM [middle of 5 runs] |
| CNCc1ccc(-c2cc(-c3nc(-c4ccc(S(=O)(=O)C(C)C)cc4)cnc3N)on2)cc1 |  |  |  |  |  |  | 0.216 µM and 0.176 µM and 0.184 µM | 96.8% and 102% and 94% | 88.2% and 77.7% and 80.8% | 34.7% and 25.9% and 27.3% | 3.27% and 5.9% and 2.77% | 0.32% and 0.23% and 0.26% | viability, T/C (compound 0.00949 µM): 93% and 107% and 91.3% |
| COc1cc(C)[nH]c(=O)c1CN1CCc2c(Cl)cc(C(OC)C3COC3)c(Cl)c2C1=O (configuration not stated) | 99.2% and 104% and 106% | 92.3% and 96.3% and 96.5% | 84.5% and 87.3% and 86.1% | 78% and 79.3% and 78.8% | 72.8% and 77.8% and 73.3% | 72.2% and 72.6% and 72.4% | > 10 µM |  |  |  |  |  |  |
| COc1cc2c(cc1O)CCNC21CSC2c3c(OC(C)=O)c(C)c4c(c3C(COC1=O)N1C(O)C3Cc5cc(C)c(OC)c(O)c5C(C21)N3C)OCO4 (configuration not stated) |  |  |  |  |  |  |  |  |  |  |  |  | viability, T/C (compound 30 pM): 102% [middle of 10 runs]; viability, T/C (compound 94.9 pM): 102% [middle of 10 runs]; viability, T/C (compound 0.0003 µM): 41.4% [middle of 10 runs]; viability, T/C (compound 0.000949 µM): 4.04% [middle of 10 runs]; viability, T/C (compound 0.003 µM): 0.21% [middle of 7 runs]; IC50 [2]: 0.253 nM [middle of 10 runs] |
| COc1ccc([C@@H](O)c2cc(-c3ncnc4cc(N5CCOCC5)ccc34)c(F)cc2Cl)nn1 | 98.5% and 111% and 96.3% | 100% and 104% and 105% | 98% and 103% and 108% | 98.8% and 121% and 100% | 81.9% and 95.8% and 92.8% | 40.5% and 46.1% and 35.6% | 7.8 µM and 9.15 µM and 7.49 µM |  |  |  |  |  |  |
| Cc1cc(C)c(CNC(=O)c2cc(-c3ccc(CN4CCOCC4)cc3)cc3c2cnn3C2CCCC2)c(=O)[nH]1 | 99.2% and 94.7% and 96.4% | 104% and 96.8% and 102% | 103% and 113% and 108% | 116% and 115% (2×) | 106% and 110% and 103% | 62.3% and 78% and 72.8% | > 10 µM |  |  |  |  |  |  |
| Cc1sc2c(c1C)C(c1ccc(Cl)cc1)=NC(CC(=O)Nc1ccc(O)cc1)c1nnc(C)n1-2 (configuration not stated) |  |  |  |  |  |  | 0.164 µM and 0.116 µM | 111% and 108% and 107% | 69.5% and 72.7% and 55.8% | 27.6% and 24.4% and 18.9% | 11.3% and 9.42% and 7.59% | 7.11% and 4.64% and 4.8% | viability, T/C (compound 0.00949 µM): 99% and 105% and 95% |
| Cn1ncnc1[C@H]1c2n[nH]c(=O)c3cc(F)cc(c23)N[C@@H]1c1ccc(F)cc1 |  |  |  |  |  |  | 0.611 µM and 0.901 µM and 0.514 µM | 94.9% and 113% and 95.8% | 91.3% and 103% and 87.2% | 72.8% and 101% and 65.3% | 34.5% and 47.5% and 32.3% | 9.35% and 15.3% and 10.1% | viability, T/C (compound 0.00949 µM): 117% and 110% and 92% |
| Cn1nnc2c(C(N)=O)ncn2c1=O |  |  |  | 101% [middle of 10 runs] | 101% [middle of 9 runs] | 106% [middle of 10 runs] |  |  |  |  |  |  | viability, T/C (compound 31.6 µM): 106% [middle of 10 runs]; IC50 [1]: > 100 µM |
| O=C(c1cc(Cc2n[nH]c(=O)c3ccccc23)ccc1F)N1CCN(C(=O)C2CC2)CC1 |  |  |  |  |  |  | 27.7 µM and 11.1 µM and 12 µM |  | 105% and 104% and 97.3% | 104% (2×) and 102% | 107% and 98.7% and 106% | 109% and 107% and 102% | viability, T/C (compound 9.49 µM): 70.7% and 53.2% and 55.8%; viability, T/C (compound 30 µM): 48.5% and 29.6% and 26.8% |
| [2H]c1nc(C)nc([2H])c1-c1cc(NC[C@@H](C)c2cccc3c(C(=O)NC)ccnc23)ncn1 | 103% and 104% (2×) | 109% and 103% and 111% | 105% and 99.8% and 113% | 105% and 103% and 96.1% | 101% and 98% and 103% | 96.1% and 93.5% and 87.6% | > 10 µM |  |  |  |  |  |  |
